US11414403B2, “Antibacterial compound and uses of same” (BIOMÉRIEUX, priority 2017, dated 2022)
In brackets after ≈: the same amount, converted by molar mass.

Key:
Assay in all cases: MIC by agar dilution method
Format in all cases: cell-based
[1] = system: Acinetobacter baumannii ATCC 19606; settings: ATCC19606, 22 hours at 37° C.
Procedure: (§1) The minimum inhibitory concentrations (MICs) of L-pyroglutamyl-L-1-aminoethyltetrazole (12) for 13 Gram-negative strains of bacteria and 8 Gram-positive strains of bacteria were determined using an agar dilution method described by Andrews J M. 2001 (“Determination of minimum inhibitory concentrations[…]; J. Antimicrob. Chemother. (2001) 48 Suppl. 1:5-16). Said method required the use of a defined antagonist-free medium (without peptone), prepared in the way previously described with the inclusion of 2% saponin-lysed horse blood, 25.0 μg/ml of NAD and 25.0 μg/ml of hemin (Atherton et al., 1979; “Phosphonopeptides as antibacterial agents: rationale, chemistry, and structure-activity relationships[…]; Antimicrob. Agents Chemother. (1979) 15:677-683). […] All the isolates were prepared at a density equivalent to […] in sterile deionized water using a densitometer (approximately 1.5×10^8 CFU/ml), then diluted to […]. A 1 μl aliquot of each diluted suspension was then placed on dishes with a multispot inoculator to give the recommended final inoculation of 10 000 CFU/spot (Andrews, 2001. “Determination of minimum inhibitory concentrations”; J. Antimicrob. Chemother. 48 Suppl 1:5-16). All the dishes (including the antimicrobial-free controls) were incubated for 22 hours at 37° C. All the tests were carried out on at least two independent replicates in order to examine the reproducibility.
(§2) The bacterial isolates tested all come from international collections, the American Type Culture Collection (ATCC) and the National Collection of Type Cultures (NCTC).

[2] = system: Bacillus subtilis NCTC 9372
Procedure: as §1, §2

[3] = system: Burkholderia cepacia ATCC 25416; settings: ATCC25416, 22 hours at 37° C.
Procedure: as §1, §2

[4] = system: Enterobacter cloacae NCTC 11936; settings: NCTC11936, 22 hours at 37° C.
Procedure: as §1, §2

[5] = system: Enterococcus faecalis NCTC 775
Procedure: as §1, §2

[6] = system: Enterococcus faecium NCTC 7171
Procedure: as §1, §2

[7] = system: Escherichia coli NCTC 10418; settings: NCTC10418, 22 hours at 37° C.
Procedure: as §1, §2

[8] = system: Escherichia coli NCTC 12241; settings: NCTC12241, 22 hours at 37° C.
Procedure: as §1, §2

[9] = system: Klebsiella pneumoniae NCTC 9528
Procedure: as §1, §2

[10] = system: Listeria monocytogenes NCTC 11994; settings: NCTC11994, 22 hours at 37° C.
Procedure: as §1, §2

[11] = system: Providencia rettgeri NCTC 7475; settings: NCTC7475, 22 hours at 37° C.
Procedure: as §1, §2

[12] = system: Pseudomonas aeruginosa NCTC 10662; settings: NCTC10662, 22 hours at 37° C.
Procedure: as §1, §2

[13] = system: Salmonella enteritidis NCTC 6676; settings: Salmonella enterica, 22 hours at 37° C.
Procedure: as §1, §2

[14] = system: Salmonella enteritidis NCTC 74; settings: Salmonella enterica, 22 hours at 37° C.
Procedure: as §1, §2

[15] = system: Salmonella typhimurium NCTC 74; settings: Salmonella enterica, 22 hours at 37° C.
Procedure: as §1, §2

[16] = system: Serratia marcescens NCTC 10211
Procedure: as §1, §2

[17] = system: Staphylococcus aureus (MRSA) NCTC 11939; settings: 22 hours at 37° C.
Procedure: as §1, §2

[18] = system: Staphylococcus aureus (MSSA) NCTC 6571; settings: 22 hours at 37° C.
Procedure: as §1, §2

[19] = system: Staphylococcus epidermidis NCTC 11047; settings: NCTC11047, 22 hours at 37° C.
Procedure: as §1, §2

[20] = system: Streptococcus agalactiae NCTC 8181; settings: NCTC8181, 22 hours at 37° C.
Procedure: as §1, §2

[21] = system: Yersinia enterocolitica NCTC 11176
Procedure: as §1, §2

[22] = at very low concentrations, of about 2 mg/l, enterococci

MIC [1]: > 128 µg/mL
MIC ([2]; NCTC9372, Bacillus subtilis NCTC 9372, 22 hours at 37° C.): 64 µg/mL (≈ 285 µM)
MIC [3]: > 128 µg/mL
MIC [4]: > 128 µg/mL
MIC ([5]; NCTC775, Enterococcus faecalis NCTC 775, 22 hours at 37° C.): 2 µg/mL (≈ 8.92 µM)
MIC ([6]; NCTC7171, Enterococcus faecium NCTC 7171, 22 hours at 37° C.): 2 µg/mL (≈ 8.92 µM)
MIC [7]: > 128 µg/mL
MIC [8]: > 128 µg/mL
MIC ([9]; NCTC9528, Klebsiella pneumoniae NCTC 9528, 22 hours at 37° C.): 8 µg/mL (≈ 35.7 µM)
MIC [10]: > 128 µg/mL
MIC [11]: > 128 µg/mL
MIC [12]: > 128 µg/mL
MIC [13]: > 128 µg/mL
MIC [14]: > 128 µg/mL
MIC [15]: > 128 µg/mL
MIC ([16]; NCTC10211, Serratia marcescens NCTC 10211, 22 hours at 37° C.): 8 µg/mL (≈ 35.7 µM)
MIC [17]: > 128 µg/mL
MIC [18]: > 128 µg/mL
MIC [19]: > 128 µg/mL
MIC [20]: > 128 µg/mL
MIC ([21]; NCTC11176, Yersinia enterocolitica NCTC 11176, 22 hours at 37° C.): 4 µg/mL (≈ 17.8 µM)
Compound: C[C@H](NC(=O)[C@@H]1CCC(=O)N1)c1nnn[nH]1 [compound 12, L-pyroglutamyl-L-1-aminoethyltetrazole]
antibacterial activity (in words) ([2]; Bacillus subtilis): highly inhibitory
antibacterial activity (in words) ([5]; Enterococcus faecalis): highly inhibitory
inhibition specificity (in words) [5, 22]: excellent inhibition specificity for enterococci
antibacterial activity (in words) ([6]; Enterococcus faecium): highly inhibitory
inhibition specificity (in words) [6, 22]: excellent inhibition specificity for enterococci
Growth at various concentrations (mg/l) ([9]; 4 mg/l, Klebsiella pneumoniae NCTC 9528): Tr.
antibacterial activity (in words) ([9]; Klebsiella pneumoniae): highly inhibitory
antibacterial activity (in words) ([16]; Serratia marcescens): highly inhibitory
Growth at various concentrations (mg/l) ([21]; 2 mg/l, Yersinia enterocolitica NCTC 11176): Tr.
antibacterial activity (in words) ([21]; Yersinia enterocolitica): highly inhibitory
